Experimental data as given in PubChem BioAssay AID256 (DTP/NCI, 2004).
Several values for one entry are separate records, joined by “and”; a condition that tells them apart may be missing. Identical values can stand only once. Toxic doses and inconclusive results are not listed. How the source made its calls: active means survival T/C of 150% or more; inactive means T/C below 125% in these data.

System: CD2F1 mice, L1210 leukemia ip, survival T/C
Test: NCI In Vivo Anticancer Drug Screen. Data for tumor model L1210 Leukemia (intraperitoneal) in CD2F1 (CDF1) mice
Details: higher = longer survival
In short: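 Mice carrying a transplanted tumor received test compound or vehicle alone. The value is the measurement in the treated group divided by that in the vehicle-treated control group.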

[1] = endpoint: mean survival time, dose: 12.5 mg/kg/injection, schedule: Q01DX005 (ip), vehicle: distilled water + Tween-80
[2] = endpoint: mean survival time, dose: 25.0 mg/kg/injection, schedule: Q01DX005 (ip), vehicle: distilled water + Tween-80
[3] = endpoint: mean survival time, dose: 50.0 mg/kg/injection, schedule: Q01DX005 (ip), vehicle: distilled water + Tween-80
[4] = endpoint: mean survival time, dose: 100.0 mg/kg/injection, schedule: Q01DX005 (ip), vehicle: distilled water + Tween-80
[5] = endpoint: mean survival time, dose: 200.0 mg/kg/injection, schedule: Q01DX005 (ip), vehicle: distilled water + Tween-80
[6] = endpoint: mean survival time, dose: 12.5 mg/kg/injection, schedule: Q01DX005 (ip), vehicle: water
[7] = endpoint: mean survival time, dose: 25.0 mg/kg/injection, schedule: Q01DX005 (ip), vehicle: water
[8] = endpoint: mean survival time, dose: 50.0 mg/kg/injection, schedule: Q01DX005 (ip), vehicle: water
[9] = endpoint: mean survival time, dose: 100.0 mg/kg/injection, schedule: Q01DX005 (ip), vehicle: water
[10] = endpoint: mean survival time, dose: 100.0 mg/kg/injection, schedule: Q04DX003 (ip), vehicle: saline with Tween-80
[11] = endpoint: mean survival time, dose: 200.0 mg/kg/injection, schedule: Q04DX003 (ip), vehicle: saline with Tween-80
[12] = endpoint: mean survival time, dose: 400.0 mg/kg/injection, schedule: Q04DX003 (ip), vehicle: saline with Tween-80
[13] = endpoint: mean survival time, dose: 25.0 mg/kg/injection, schedule: Q01DX009 (ip), vehicle: other
[14] = endpoint: mean survival time, dose: 50.0 mg/kg/injection, schedule: Q01DX009 (ip), vehicle: other
[15] = endpoint: mean survival time, dose: 100.0 mg/kg/injection, schedule: Q01DX009 (ip), vehicle: other
[16] = endpoint: mean survival time, dose: 100.0 mg/kg/injection, schedule: Q04DX003 (ip), vehicle: other
[17] = endpoint: mean survival time, dose: 100.0 mg/kg/injection, schedule: Q01DX001 (ip), vehicle: saline with Tween-80
[18] = endpoint: mean survival time, dose: 200.0 mg/kg/injection, schedule: Q01DX001 (ip), vehicle: saline with Tween-80
[19] = endpoint: mean survival time, dose: 400.0 mg/kg/injection, schedule: Q01DX001 (ip), vehicle: saline with Tween-80
[20] = endpoint: mean survival time, dose: 75.0 mg/kg/injection, schedule: Q01DX001 (ip), vehicle: saline
[21] = endpoint: mean survival time, dose: 150.0 mg/kg/injection, schedule: Q01DX001 (ip), vehicle: saline
[22] = endpoint: mean survival time, dose: 300.0 mg/kg/injection, schedule: Q01DX001 (ip), vehicle: saline

Measured: T/C

CCCCNc1nc2c(N)ncnc2n1C1OC(CO)C(O)C1O (stereo not drawn)
inactive: [1] 100 % of control and 97 % of control | [2] 102 % of control and 100 % of control | [3] 100 % of control | [4] 100 % of control and 102 % of control | [5] 100 % of control and 103 % of control

Nc1cc(=O)c2nnn(C3OC(CO)C(O)C3O)c2[nH]1 (stereo not drawn)
inactive: [6] 102 % of control | [7] 98 % of control | [8] 94 % of control | [9] 87 % of control | endpoint: mean survival time, dose: 200.0 mg/kg/injection, schedule: Q01DX005 (ip), vehicle: water 105 % of control | endpoint: mean survival time, dose: 400.0 mg/kg/injection, schedule: Q01DX005 (ip), vehicle: water 90 % of control

Nc1nc(N)c(N=Nc2ccc(SCC(=O)O)cc2)c(N)n1
inactive: [10] 102 % of control | [11] 104 % of control | [12] 95 % of control

CCC(CC)C(O)CC(O)CC(C)C (stereo not drawn)
inactive: [13] 97 % of control | [14] 103 % of control | [15] 97 % of control | [16] 86 % of control | endpoint: mean survival time, dose: 400.0 mg/kg/injection, schedule: Q04DX003 (ip), vehicle: other 94 % of control

CC(=O)CC(=O)c1ccccc1.CC(=O)CC(=O)c1ccccc1.CC(=O)CC(=O)c1ccccc1.[Cr]
inactive: endpoint: median survival time, dose: 50.0 mg/kg/injection, schedule: Q04DX002 (ip), vehicle: saline with Tween-80 88 % of control | endpoint: median survival time, dose: 100.0 mg/kg/injection, schedule: Q04DX002 (ip), vehicle: saline with Tween-80 88 % of control | endpoint: median survival time, dose: 200.0 mg/kg/injection, schedule: Q04DX002 (ip), vehicle: saline with Tween-80 88 % of control | endpoint: median survival time, dose: 400.0 mg/kg/injection, schedule: Q04DX002 (ip), vehicle: saline with Tween-80 88 % of control

CC(=O)[O][Hg][O]C(C)=O
inactive: endpoint: mean survival time, dose: 1.25 mg/kg/injection, schedule: Q01DX009 (ip), vehicle: saline sonified 95 % of control | endpoint: mean survival time, dose: 2.5 mg/kg/injection, schedule: Q01DX009 (ip), vehicle: saline sonified 103 % of control | endpoint: mean survival time, dose: 5.0 mg/kg/injection, schedule: Q01DX009 (ip), vehicle: saline sonified 90 % of control | endpoint: mean survival time, dose: 5.0 mg/kg/injection, schedule: Q04DX003 (ip), vehicle: saline with Tween-80 106 % of control

NCCc1cc(O)c(O)cc1O
inactive: endpoint: mean survival time, dose: 50.0 mg/kg/injection, schedule: Q01DX009 (ip), vehicle: saline 93 % of control | endpoint: mean survival time, dose: 100.0 mg/kg/injection, schedule: Q01DX009 (ip), vehicle: saline 104 % of control

CC12OCCCC1C1CCCCC12 (stereo not drawn)
inactive: [10] 95 % of control | [11] 95 % of control | [12] 90 % of control

O=C(O)C1C2CC3OC(=O)C1C3C2 (stereo not drawn)
inactive: endpoint: mean survival time, dose: 100.0 mg/kg/injection, schedule: Q04DX003 (ip), vehicle: saline 94 % of control | endpoint: mean survival time, dose: 200.0 mg/kg/injection, schedule: Q04DX003 (ip), vehicle: saline 93 % of control | endpoint: mean survival time, dose: 400.0 mg/kg/injection, schedule: Q04DX003 (ip), vehicle: saline 96 % of control

O=C(CC(O)(C(F)(F)F)C(F)(F)F)c1ccc(Cl)cc1
inactive: [14] 103 % of control | [15] 103 % of control | [10] 107 % of control | endpoint: mean survival time, dose: 200.0 mg/kg/injection, schedule: Q01DX009 (ip), vehicle: other 87 % of control | [11] 107 % of control

COC1=CCC(=Nc2ccccc2)C=C1
inactive: [17] 96 % of control | [18] 102 % of control | [19] 95 % of control

C=C1C(=O)OC2C1CCC(C)C1(O)C=CC(=O)C21C (stereo not drawn)
inactive: endpoint: mean survival time, dose: 50.0 mg/kg/injection, schedule: Q01DX001 (ip), vehicle: saline 107 % of control | endpoint: mean survival time, dose: 100.0 mg/kg/injection, schedule: Q01DX001 (ip), vehicle: saline 97 % of control

COc1ccc(C(C#N)C(CC(=O)c2ccccc2)c2ccccc2)cc1 (stereo not drawn)
inactive: endpoint: mean survival time, dose: 100.0 mg/kg/injection, schedule: Q04DX002 (ip), vehicle: saline with Tween-80 98 % of control | endpoint: mean survival time, dose: 200.0 mg/kg/injection, schedule: Q04DX002 (ip), vehicle: saline with Tween-80 91 % of control | endpoint: mean survival time, dose: 400.0 mg/kg/injection, schedule: Q04DX002 (ip), vehicle: saline with Tween-80 87 % of control

COC(=O)[C@@]12OC[C@]34[C@H]([C@@H](O)[C@@H]1O)[C@@]1(C)CC(=O)C(O)=C(C)[C@@H]1C[C@H]3OC(=O)[C@H](OC(=O)/C=C(\C)C(C)C)[C@@H]24
inactive: endpoint: mean survival time, dose: 125.0 micrograms/kg/injection, schedule: Q01DX009 (ip), vehicle: saline + alcohol 120 % of control | endpoint: mean survival time, dose: 250.0 micrograms/kg/injection, schedule: Q01DX009 (ip), vehicle: saline + alcohol 106 % of control | endpoint: mean survival time, dose: 500.0 micrograms/kg/injection, schedule: Q01DX009 (ip), vehicle: saline + alcohol 112 % of control | endpoint: mean survival time, dose: 1000.0 micrograms/kg/injection, schedule: Q01DX009 (ip), vehicle: saline + alcohol 120 % of control | endpoint: median survival time, dose: 0.25 mg/kg/injection, schedule: Q01DX009 (ip), vehicle: saline + alcohol 120 % of control and 122 % of control | endpoint: median survival time, dose: 0.5 mg/kg/injection, schedule: Q01DX009 (ip), vehicle: saline + alcohol 120 % of control

NC(=N\O)/C(N)=N/O.[Cl][Pt][Cl]
inactive: endpoint: median survival time, dose: 3.12 mg/kg/injection, schedule: Q04DX003 (ip), vehicle: saline 100 % of control | endpoint: median survival time, dose: 6.25 mg/kg/injection, schedule: Q04DX003 (ip), vehicle: saline 103 % of control | endpoint: median survival time, dose: 12.5 mg/kg/injection, schedule: Q04DX003 (ip), vehicle: saline 97 % of control | endpoint: median survival time, dose: 25.0 mg/kg/injection, schedule: Q04DX003 (ip), vehicle: saline 103 % of control | endpoint: median survival time, dose: 50.0 mg/kg/injection, schedule: Q04DX003 (ip), vehicle: saline 109 % of control | endpoint: median survival time, dose: 100.0 mg/kg/injection, schedule: Q04DX003 (ip), vehicle: saline 112 % of control | endpoint: median survival time, dose: 200.0 mg/kg/injection, schedule: Q04DX003 (ip), vehicle: saline 123 % of control

Nc1cccc(/C=C/c2nc(N)nc(N)c2-c2ccc(Cl)c(Cl)c2)c1
inactive: [20] 91 % of control | [21] 92 % of control | [22] 91 % of control

Cc1ccccc1-c1nc2c([nH]1)c(=O)n(C)c(=O)n2C
inactive: [1] 87 % of control | [2] 92 % of control and 94 % of control | [3] 93 % of control and 95 % of control | [4] 88 % of control | [5] 88 % of control and 93 % of control | endpoint: mean survival time, dose: 400.0 mg/kg/injection, schedule: Q01DX005 (ip), vehicle: distilled water + Tween-80 90 % of control

C=C[C](=C)[Pb]([CH2]C)([CH2]C)[CH2]C
inactive: [20] 100 % of control | [21] 97 % of control | [22] 107 % of control

CCCCCCCCCCCCCCOc1ccc(C(=O)O)cc1
inactive: endpoint: mean survival time, dose: 100.0 mg/kg/injection, schedule: Q01DX009 (ip), vehicle: Klucel (hydroxypropylcellulose) (HPC) 93 % of control | [10] 91 % of control | endpoint: mean survival time, dose: 200.0 mg/kg/injection, schedule: Q01DX009 (ip), vehicle: Klucel (hydroxypropylcellulose) (HPC) 93 % of control | [11] 90 % of control | endpoint: mean survival time, dose: 400.0 mg/kg/injection, schedule: Q01DX009 (ip), vehicle: Klucel (hydroxypropylcellulose) (HPC) 93 % of control | [12] 88 % of control

O=C(C=C(C(F)(F)F)C(F)(F)F)c1ccc(Br)cc1
inactive: endpoint: mean survival time, dose: 12.5 mg/kg/injection, schedule: Q01DX009 (ip), vehicle: other 107 % of control | [13] 110 % of control | [16] 105 % of control

c1ccc2c(c1)Nc1ccccc1S2
inactive: endpoint: mean survival time, dose: 100.0 mg/kg/injection, schedule: Q01DX009 (ip), vehicle: saline with Tween-80 92 % of control | [10] 98 % of control | endpoint: mean survival time, dose: 200.0 mg/kg/injection, schedule: Q01DX009 (ip), vehicle: saline with Tween-80 92 % of control | [11] 108 % of control | endpoint: mean survival time, dose: 400.0 mg/kg/injection, schedule: Q01DX009 (ip), vehicle: saline with Tween-80 89 % of control | [12] 101 % of control

Cn1c(=O)c2c(ncn2C(C=O)OC(C=O)CO)n(C)c1=O (stereo not drawn)
inactive: [6] 101 % of control | [7] 104 % of control | [8] 110 % of control | [9] 112 % of control

COC(=O)c1cc(C(=O)OC)c(C(=O)OC)cc1C(=O)OC
inactive: [10] 97 % of control | [11] 92 % of control | [12] 89 % of control

O=C1Nc2ccc(C(=O)O)c(O)c2C1=O
inactive: [17] 96 % of control | [18] 100 % of control | [19] 89 % of control
